Results taken from patent US20250122174A1 (Shenzhen Yuanli Shenwan Innovative Medicine Co., Ltd., priority 2022, published 2025).

biological target: HPK1 (Homo sapiens (Human), UniProt Q92918); assay: HPK1 Inhibition Assay (ADP-Glo kinase assay); format: biochemical; conditions: ATP 10 μM
Summary of the method: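 ADP-Glo luminescence read-out after 1 h room-temperature kinase reaction with 10 μM ATP and 0.1 μg/ml MBP. Recombinant human HPK1 at 7.5 ng/μl; buffer 40 mM Tris pH 7.5, 20 mM MgCl2. Compounds serially diluted 5-fold over 10 points from 10 mM DMSO stock.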

Chain of HPK1 (Q92918 1-346 limits assumed): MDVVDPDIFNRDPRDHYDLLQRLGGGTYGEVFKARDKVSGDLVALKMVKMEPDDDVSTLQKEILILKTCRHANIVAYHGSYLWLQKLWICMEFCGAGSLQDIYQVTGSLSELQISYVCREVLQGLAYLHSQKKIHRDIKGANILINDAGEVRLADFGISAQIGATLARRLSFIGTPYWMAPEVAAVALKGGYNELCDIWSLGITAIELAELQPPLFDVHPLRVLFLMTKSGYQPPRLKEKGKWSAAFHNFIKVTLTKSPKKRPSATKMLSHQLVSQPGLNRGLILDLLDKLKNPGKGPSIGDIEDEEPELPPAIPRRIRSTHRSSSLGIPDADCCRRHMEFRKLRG

IC50, < 100 nM:
CC(C)c1nc2c(N3CC4C(N)C4C3)c(NC(=O)c3ccc(=O)n(-c4c(F)cccc4F)n3)ccc2n1C [Example 119, N-(4-((1R,5S,6r)-6-amino-3-azabicyclo[3.1.0]hexan-3-yl)-2-isopropyl-1-methyl-1H-benzo[d]imidazol-5-yl)-1-(2,6-difluorophenyl)-6-oxo-1,6-dihydropyridazine-3-carboxamide]
CC(C)c1nc2c(N3CC[C@@H](N)C3)c(NC(=O)c3nn(-c4c(F)cccc4F)c(=O)cc3Cl)ccc2n1C [Example 120, (R)-N-(4-(3-aminopyrrolidin-1-yl)-2-isopropyl-1-methyl-1H-benzo[d]imidazol-5-yl)-4-chloro-1-(2,6-difluorophenyl)-6-oxo-1,6-dihydropyridazine-3-carboxamide]
CC[C@@]1(N)CCN(c2c(NC(=O)c3ccc(=O)n(-c4c(F)cccc4F)n3)ccc3c2nc(C(C)C)n3C)C1 [Example 121, (R)-N-(4-(3-amino-3-ethylpyrrolidin-1-yl)-2-isopropyl-1-methyl-1H-benzo[d]imidazol-5-yl)-1-(2,6-difluorophenyl)-6-oxo-1,6-dihydropyridazine-3-carboxamide]
CC[C@]1(N)CCN(c2c(NC(=O)c3ccc(=O)n(-c4c(F)cccc4F)n3)ccc3c2nc(C(C)C)n3C)C1 [Example 122, (S)-N-(4-(3-amino-3-ethylpyrrolidin-1-yl)-2-isopropyl-1-methyl-1H-benzo[d]imidazol-5-yl)-1-(2,6-difluorophenyl)-6-oxo-1,6-dihydropyridazine-3-carboxamide]
CC(C)c1nc2c(N3CC[C@@](C)(N)C3)c(NC(=O)c3ccc(=O)n(-c4c(F)cccc4F)n3)ccc2n1C [Example 123, (R)-N-(4-(3-amino-3-methylpyrrolidin-1-yl)-2-isopropyl-1-methyl-1H-benzo[d]imidazol-5-yl)-1-(2,6-difluorophenyl)-6-oxo-1,6-dihydropyridazine-3-carboxamide]
CC(C)c1nc2c(N3CC[C@@H](N(C)C)C3)c(NC(=O)c3ccc(=O)n(-c4c(F)cccc4F)n3)ccc2n1C [Example 126, (R)-1-(2,6-difluorophenyl)-N-(4-(3-(dimethylamino)pyrrolidin-1-yl)-2-isopropyl-1-methyl-1H-benzo[d]imidazol-5-yl)-6-oxo-1,6-dihydropyridazine-3-carboxamide]
CN[C@@H]1CCN(c2c(NC(=O)c3ccc(=O)n(-c4c(F)cccc4F)n3)ccc3c2nc(C(C)C)n3C)C1 [Example 127, (R)-1-(2,6-difluorophenyl)-N-(2-isopropyl-1-methyl-4-(3-(methylamino)pyrrolidin-1-yl)-1H-benzo[d]imidazol-5-yl)-6-oxo-1,6-dihydropyridazine-3-carboxamide]
CC(C)c1nc2c(N3CC[C@@H](NC(=O)CCN)C3)c(NC(=O)c3ccc(=O)n(-c4c(F)cccc4F)n3)ccc2n1C [Example 128, (R)-N-(4-(3-(3-aminopropanamido)pyrrolidin-1-yl)-2-isopropyl-1-methyl-1H-benzo[d]imidazol-5-yl)-1-(2,6-difluorophenyl)-6-oxo-1,6-dihydropyridazine-3-carboxamide]
CC(C)c1nc2c(N3CC[C@@H](NCC(C)(C)O)C3)c(NC(=O)c3ccc(=O)n(-c4c(F)cccc4F)n3)ccc2n1C [Example 129, (R)-1-(2,6-difluorophenyl)-N-(4-(3-((2-hydroxy-2-methylpropyl)amino)pyrrolidin-1-yl)-2-isopropyl-1-methyl-1H-benzo[d]imidazol-5-yl)-6-oxo-1,6-dihydropyridazine-3-carboxamide]
CC(C)c1nc2c(N3CC[C@@H](NCCO)C3)c(NC(=O)c3ccc(=O)n(-c4c(F)cccc4F)n3)ccc2n1C [Example 130, (R)-1-(2,6-difluorophenyl)-N-(4-(3-((2-hydroxyethyl)amino)pyrrolidin-1-yl)-2-isopropyl-1-methyl-1H-benzo[d]imidazol-5-yl)-6-oxo-1,6-dihydropyridazine-3-carboxamide]
CC(C)c1nc2c(N3CC[C@@H](NC(=O)CN)C3)c(NC(=O)c3ccc(=O)n(-c4c(F)cccc4F)n3)ccc2n1C [Example 131, (R)-N-(4-(3-(2-aminoacetamido)pyrrolidin-1-yl)-2-isopropyl-1-methyl-1H-benzo[d]imidazol-5-yl)-1-(2,6-difluorophenyl)-6-oxo-1,6-dihydropyridazine-3-carboxamide]
CC(C)c1nc2c(N3CC[C@H](N)C3)c(NC(=O)c3ccc(=O)n(-c4c(F)cccc4F)n3)ccc2n1C [Example 132, (S)-N-(4-(3-aminopyrrolidin-1-yl)-2-isopropyl-1-methyl-1H-benzo[d]imidazol-5-yl)-1-(2,6-difluorophenyl)-6-oxo-1,6-dihydropyridazine-3-carboxamide]
CC(C)c1nc2c(N3CCC(N)CC3)c(NC(=O)c3ccc(=O)n(-c4c(F)cccc4F)n3)ccc2n1C [Example 133, N-(4-(4-aminopiperidin-1-yl)-2-isopropyl-1-methyl-1H-benzo[d]imidazol-5-yl)-1-(2,6-difluorophenyl)-6-oxo-1,6-dihydropyridazine-3-carboxamide]
CC(C)c1nc2c(N3CCC[C@H]3CN)c(NC(=O)c3ccc(=O)n(-c4c(F)cccc4F)n3)ccc2n1C [Example 134, (S)-N-(4-(2-(aminomethyl)pyrrolidin-1-yl)-2-isopropyl-1-methyl-1H-benzo[d]imidazol-5-yl)-1-(2,6-difluorophenyl)-6-oxo-1,6-dihydropyridazine-3-carboxamide]
CC(C)c1nc2c(N3CCC4(CCNC4)C3)c(NC(=O)c3ccc(=O)n(-c4c(F)cccc4F)n3)ccc2n1C (stereo not shown) [Example 136, 1-(2,6-difluorophenyl)-N-(2-isopropyl-1-methyl-4-(2,7-diazaspiro[4.4]nonan-2-yl)-1H-benzo[d]imidazol-5-yl)-6-oxo-1,6-dihydropyridazine-3-carboxamide]
CC(C)c1nc2c(N3C[C@H]4CNC[C@H]4C3)c(NC(=O)c3ccc(=O)n(-c4c(F)cccc4F)n3)ccc2n1C [Example 137, 1-(2,6-difluorophenyl)-N-(4-((3aR,6aS)-hexahydropyrrolo[3,4-c]pyrrol-2(1H)-yl)-2-isopropyl-1-methyl-1H-benzo[d]imidazol-5-yl)-6-oxo-1,6-dihydropyridazine-3-carboxamide]
CC(C)c1nc2c(N3CC[C@@](C)(O)C3)c(NC(=O)c3ccc(=O)n(-c4c(F)cccc4F)n3)ccc2n1C [Example 140, (R)-1-(2,6-difluorophenyl)-N-(4-(3-hydroxy-3-methylpyrrolidin-1-yl)-2-isopropyl-1-methyl-1H-benzo[d]imidazol-5-yl)-6-oxo-1,6-dihydropyridazine-3-carboxamide]
CC(C)c1nc2c(N3CC(F)(F)C[C@H]3CN)c(NC(=O)c3ccc(=O)n(-c4c(F)cccc4F)n3)ccc2n1C [Example 141, (S)-N-(4-(2-(aminomethyl)-4,4-difluoropyrrolidin-1-yl)-2-isopropyl-1-methyl-1H-benzo[d]imidazol-5-yl)-1-(2,6-difluorophenyl)-6-oxo-1,6-dihydropyridazine-3-carboxamide]
CC(C)c1nc2c(N3CC(N)C(O)C3)c(NC(=O)c3ccc(=O)n(-c4c(F)cccc4F)n3)ccc2n1C (stereo not shown) [Example 142, N-(4-(3-amino-4-hydroxypyrrolidin-1-yl)-2-isopropyl-1-methyl-1H-benzo[d]imidazol-5-yl)-1-(2,6-difluorophenyl)-6-oxo-1,6-dihydropyridazine-3-carboxamide]
CC(C)c1nc2c(N3CC[C@@H](N)C3)c(NC(=O)c3ccc(=O)n(-c4c(F)cccc4F)n3)cc(F)c2n1C [Example 143, (R)—N-(4-(3-aminopyrrolidin-1-yl)-7-fluoro-2-isopropyl-1-methyl-1H-benzo[d]imidazol-5-yl)-1-(2,6-difluorophenyl)-6-oxo-1,6-dihydropyridazine-3-carboxamide]
CC(C)c1nc2c(N3CC(F)(F)C[C@H]3CN)c(NC(=O)c3ccc(=O)n(-c4c(F)cccc4F)n3)cc(F)c2n1C [Example 144, (S)-N-(4-(2-(aminomethyl)-4,4-difluoropyrrolidin-1-yl)-7-fluoro-2-isopropyl-1-methyl-1H-benzo[d]imidazol-5-yl)-1-(2,6-difluorophenyl)-6-oxo-1,6-dihydropyridazine-3-carboxamide]
CC(C)c1nc2c(N3C[C@@H]4[C@H](N)[C@@H]4C3)c(NC(=O)c3ccc(=O)n(-c4c(F)cccc4F)n3)cc(F)c2n1C [Example 145, N-(4-((1R,5S,6r)-6-amino-3-azabicyclo[3.1.0]hexane-3-yl)-7-fluoro-2-isopropyl-1-methyl-1H-benzo[d]imidazol-5-yl)-1-(2,6-difluorophenyl)-6-oxo-1,6-dihydropyridazine-3-carboxamide]
Cn1c(C2(C(F)(F)F)CC2)nc2c(N3CC[C@@H](N)C3)c(NC(=O)c3ccc(=O)n(-c4c(F)cccc4F)n3)ccc21 [Example 146, (R)—N-(4-(3-aminopyrrolidin-1-yl)-1-methyl-2-(1-(trifluoromethyl)cyclopropyl)-1H-benzo[d]imidazol-5-yl)-1-(2,6-difluorophenyl)-6-oxo-1,6-dihydropyridazine-3-carboxamide]
Cn1c(C2(C(F)(F)F)CC2)nc2c(N3C[C@H](N)C(C)(C)C3)c(NC(=O)c3ccc(=O)n(-c4c(F)cccc4F)n3)ccc21 [Example 147, (R)-N-(4-(4-amino-3,3-dimethylpyrrolidin-1-yl)-1-methyl-2-(1-(trifluoromethyl)cyclopropyl)-1H-benzo[d]imidazol-5-yl)-1-(2,6-difluorophenyl)-6-oxo-1,6-dihydropyridazine-3-carboxamide]
C[C@@H]1CN(c2c(NC(=O)c3ccc(=O)n(-c4c(F)cccc4F)n3)ccc3c2nc(C2(C(F)(F)F)CC2)n3C)C[C@@H]1N [Example 148, N-(4-((3R,4R)-3-amino-4-methylpyrrolidin-1-yl)-1-methyl-2-(1-(trifluoromethyl)cyclopropyl)-1H-benzo[d]imidazol-5-yl)-1-(2,6-difluorophenyl)-6-oxo-1,6-dihydropyridazine-3-carboxamide]
